Results taken from patent publication US6488943B1, “Antimicrobial wipes which provide improved immediate germ reduction” (The Procter & Gamble Company, priority 1999, dated 2002).

System: Vibrio fischerio
Experiment: Microtox Response Test (bioluminescence of Microtox Acute Toxicity Reagent)
Type: cell-based
Details: pure anionic surfactant; EC50 for 50% decrease of bioluminescence, 5 minutes
Description: Reference: Microtox Manual: A Toxicity Testing Handbook, 1992 Volume I-IV; Microbics Corporation.
Equipment: Microtox M500 Toxicity Testing Unit; Microbics Corporation Connected to computer for data acquisition and analysis according to above reference.
1. Preparation of Sample Stock Solution (Standard Concentration: 1000 ppm)
The stock solution of the test anionic surfactant sample is prepared and used as a stock solution from which all other dilutions are made. The standard “starting concentration”, the highest concentration to be tested, is 500 ppm. […]
a) Turn on test unit and allow reagent well temperature to equilibrate at 5.5° C. and incubator block and read well temperature to equilibrate at 15° C. […]
c) Place the assay cuvette containing reagent which corresponds to the test blank into the read well and press SET. After the cuvette has resurfaced press READ and the value will be captured by the computer.
d) Similarly read the remaining 7 cuvettes containing reagent when prompted by the computer by pressing the READ button with the correct cuvette in the READ well.
e) After all 8 initial reading have been taken, transfer 500 μl of the diluted test substance into their corresponding cuvette containing the reagent. […]

CCCCCCCCCCCCOS(=O)(=O)O.N [ammonium lauryl sulfate]
Microtox Index: 1.0 ppm

ammonium laureth-3 sulfate
Microtox Index: 120 ppm
